Four compounds from patent US4045556A, “Dipeptide derivatives, process for manufacture and pharmaceutical preparations” (priority 1974, dated 1977) can be followed below.

Holding throughout (type): in vivo
For data set [1], the system named is toxicity of amphetamine in mice. As to the kind of experiment: amphetamine group toxicity (mortality rate). As to conditions: 15 min later amphetamine 7 mg/kg. Here is the method:
It is known that the toxicity of amphetamine is increased by administration of anti-depressive compounds, especially those that have a central nervous system stimulating activity, this activity being evidenced by an increased mortality in the test.
The test substances were intraperitoneally injected and fifteen minutes later the test animals were administered amphetamine in a dose of 7 mg per kilogram. […] Those animals which were treated only with amphetamine, as control, were still all alive at that time.

The subject of a further data set is thyrotropin release. As to the kind of experiment: thyrotropin release (endocrinological properties), standard tests. The note with it: comparison with TRH. An excerpt: The endocrinological properties of typical compounds of the invention, such as L-2-oxo-imidazolidine-4-carbonyl-L-histidyl-L-prolinamide-dihydrate (Compound A) and of orotyl-L-histidyl-L-prolinamide-dihydrate (Compound B) are compared to that of TRH, the thyrotropin-releasing hormone.

Data set [2] has as its system reserpine-pretreated mice (hypomobility). In words: test of motility (reserpine hypomotility). Also on record: motility measurement: unit not given here. As to conditions: for motility measurement: mice, reserpine 5 mg/kg i.p. 10-20 h before, photocell activity cage; for stimulation of the mobility of animals: reserpine-pretreated mice, result in words. Here is the method:
Test mice were injected ten to twenty hours before the experiment with 5 mg of reserpine per kilogram of body weight, intraperitoneally. The animals developed until the beginning of the experiment a marked hypomobility. The test substances (TRH, A, B and C) are then injected intraperitoneally to groups of ten mice. Another group of ten mice pretreated with reserpine only acted as control group. The movement and activity of the animals are determined, measured and registered, the animals being confined in a photocell activity cage.
The average motility measurement for the reserpine pretreated control animals is 14.2, the untreated mice is 123.

Data set [3] relates to lowering of body temperature caused by reserpine in mice. As to the kind of experiment: body temperature test (reserpine hypothermy). More on the design: sum of the differences between the measured values and the initial temperature: unit not given here. As to conditions: for sum of the differences between the measured values and the initial temperature: reserpine 8 mg/kg i.p. 24 h before, rectal temperature every 20 min over 3 h; for effectiveness in counteracting the lowering of body temperature caused by reserpine, compared with TRH: result in words. The method, then: A series of standard tests were run.
Mice are intraperitoneally injected with 8 mg of reserpine per kilogram of body weight with a solution of reserpine, in 5% of ascorbic acid. After twenty-four hours the temperature of the animal has considerably dropped to a temperature, hereinafter designated as the "initial temperature", which is the reference temperature against which the effect of the compounds is measured. Then the test substance is injectd intraperitoneally. Thereafter, every twenty minutes, the temperature (rectal) is recorded over three hours. The sum of the differences between the measured values and the initial temperature are noted. These are reported below for different dosages.

Data set [4] has as its system rats. In words: wet dog shaking test. The note with it: 25 mg/kg i.p. Here is the method: The stimulant activity of Compound B is also shown in the "wet dog shaking" test of rats (standard test listed below).
Compound B was injected intraperitoneally and the animal activity is periodically observed. The effect of the substance is measured by the average number of shaking movements per minute. The dosage applied is 25 mg of substance/kilogram of body weight.

Data set [5] relates to rats. As to the kind of experiment: LD50 in rats. The method, then: (§1) For instance with Substance B the following values of the LD50 were determined: […]
The next data set concerns mice. As to the kind of experiment: LD50 in mice. The method, then: as §1
The subject of data set [6] is central nervous system of test animals. As to the kind of experiment: central stimulation action in pharmacological tests. As to conditions: equal doses of TRH and compound. The text has this: The compounds of formula I may be administered orally or parenterally. Their effects are observed quickly. For instance, on parenteral administration the effects occur already after ten minutes.
The most remarkable effects of the new products indicated in pharmacological tests is a central stimulation action.

For the compound `NC(=O)[C@@H]1CCCN1C(=O)[C@H](Cc1c[nH]cn1)NC(=O)C1CNC(=O)N1.O.O` (stereo partly drawn) [Compound A, L-2-oxo-imidazolidine-4-carbonyl-L-histidyl-L-prolinamide-dihydrate], the “number of dead mice (in percent) sixty minutes after amphetamine” value in data set [1] (substance 10 mg/kg i.p.) amounted to 15%; in data set [1] (substance 20 mg/kg i.p.) it was 40%; in data set [1] (substance 50 mg/kg i.p.), 60%; in data set [1] (substance 100 mg/kg i.p.) it was 50%; in data set [1] (substance 200 mg/kg i.p.) it was 85%. In the data set with thyrotropin release, the “dose required relative to TRH to obtain an equally marked thyrotropin release” value is “ten-times greater dose than TRH”. Further, the values for the motility measurement in data set [2] (substance 3 mg/kg i.p.), in data set [2] (substance 5 mg/kg i.p.) and in data set [2] (substance 10 mg/kg i.p.) were 17.0, 21.7 and 94.1, respectively. For the same compound, the “stimulation of the mobility of animals” value in data set [2] is “stimulate the mobility of animals”. For the same compound, the “sum of the differences between the measured values and the initial temperature” value in data set [3] (substance 2 mg/kg i.p.) is 20.8; in data set [3] (substance 5 mg/kg i.p.), 26.1; in data set [3] (substance 10 mg/kg i.p.), 32.8; in data set [3] (substance 20 mg/kg i.p.), 40.1. Moreover, the “effectiveness in counteracting the lowering of body temperature caused by reserpine, compared with TRH” value in data set [3] was “marketly more effective than TRH”.
By LD50 is commonly meant the dose expected to kill half of the subjects tested. Take `NC(=O)[C@@H]1CCCN1C(=O)[C@H](Cc1c[nH]cn1)NC(=O)c1cc(=O)[nH]c(=O)[nH]1.O.O` [Compound B, orotyl-L-histidyl-L-prolinamide-dihydrate]: the “number of dead mice (in percent) sixty minutes after amphetamine” value in data set [1] (substance 10 mg/kg i.p.) was found to be 70%; in data set [1] (substance 20 mg/kg i.p.), 55%; in data set [1] (substance 50 mg/kg i.p.), 75%; in data set [1] (substance 100 mg/kg i.p.), 90%; in data set [1] (substance 200 mg/kg i.p.), 80%. Further, the “average number of shaking movements per minute” value (shortened to “average number … per minute”) is on record as 5.25 in the data set with rats [4] (15 minutes after application); 3.8 with rats [4] (30 minutes after application); 3.2 in the data set on rats [4] (45 minutes after application); 2.15 with rats [4] (60 minutes after application); 2.1 in the data set with rats [4] (75 minutes after application); 1.55 in the data set on rats [4] (90 minutes after application). The “average number … per minute” value with rats [4] (105 minutes after application) came to 1.05; in the data set with rats [4] (120 minutes after application), 0.6; with rats [4] (135 minutes after application), 0.3. Also, the “duration of action compared with TRH” value in the data set on rats [4] (result in words) was “longer acting than TRH”. Moreover, the LD50 was above 4000 mg/kg in the data set on rats [5] (intramuscularly); 1000 mg/kg with rats [5] (intraveneously); above 1000 mg/kg in the data set on rats [5] (orally); above 4000 mg/kg with mice (intramuscularly); 1200 mg/kg in the data set with mice (intraveneously); above 1000 mg/kg in the data set on mice (orally). Further, in the data set with thyrotropin release, the “dose required relative to TRH to obtain an equally marked thyrotropin release” value is “ten-times greater dose than TRH”. The motility measurement in data set [2] (substance 3 mg/kg i.p.) came to 98.0; in data set [2] (substance 5 mg/kg i.p.), 106.0; in data set [2] (substance 10 mg/kg i.p.), 104.0. Moreover, the “stimulation of the mobility of animals” value in data set [2] is recorded as “stimulate the mobility of animals”. The “duration of effect relative to TRH” value in data set [6] was “several times longer”. Further, in data set [6], the “strength of stimulating effect on the central nervous system relative to TRH” value is given as “about five times stronger”. In addition, the “sum of the differences between the measured values and the initial temperature” value is reported as 34.6 in data set [3] (substance 2 mg/kg i.p.), 42.3 in data set [3] (substance 5 mg/kg i.p.), 55.3 in data set [3] (substance 10 mg/kg i.p.) and 67.1 in data set [3] (substance 20 mg/kg i.p.). Further, the “effectiveness in counteracting the lowering of body temperature caused by reserpine, compared with TRH” value in data set [3] is “marketly more effective than TRH”.
In the case of `NC(=O)[C@@H]1CCCN1C(=O)[C@H](Cc1c[nH]cn1)NC(=O)[C@@H]1CCC(=O)N1` [TRH, pyroglutamyl-histidyl-proline amide, reference compound], the “number of dead mice (in percent) sixty minutes after amphetamine” value worked out at 20% in data set [1] (substance 10 mg/kg i.p.); 25% in data set [1] (substance 20 mg/kg i.p.); 55% in data set [1] (substance 50 mg/kg i.p.); 65% in data set [1] (substance 100 mg/kg i.p.); 65% in data set [1] (substance 200 mg/kg i.p.). The figures for the “average number … per minute” value in the data set with rats [4] (15 minutes after application) and with rats [4] (30 minutes after application) were 2.9 and 1.0, respectively. The motility measurement was determined as 0.9 in data set [2] (substance 3 mg/kg i.p.), 1.2 in data set [2] (substance 5 mg/kg i.p.) and 44.0 in data set [2] (substance 10 mg/kg i.p.). Moreover, the “sum of the differences between the measured values and the initial temperature” value in data set [3] (substance 2 mg/kg i.p.) came out at 18.4; in data set [3] (substance 5 mg/kg i.p.), 16.5; in data set [3] (substance 10 mg/kg i.p.), 27.9; in data set [3] (substance 20 mg/kg i.p.), 32.8.
Turning to `NC(=O)[C@@H]1CCCN1C(=O)[C@H](Cc1c[nH]cn1)NC(=O)C1CSCC(=O)N1.O` (stereo partly drawn) [Compound C, L-5-oxo-thiomorpholine-3-carbonyl-L-histidyl-L-prolinamide-hydrate], the “number of dead mice (in percent) sixty minutes after amphetamine” value was 60% in data set [1] (substance 10 mg/kg i.p.); 70% in data set [1] (substance 20 mg/kg i.p.); 70% in data set [1] (substance 50 mg/kg i.p.); 70% in data set [1] (substance 100 mg/kg i.p.); 90% in data set [1] (substance 200 mg/kg i.p.). Further, the values for the motility measurement in data set [2] (substance 3 mg/kg i.p.), in data set [2] (substance 5 mg/kg i.p.) and in data set [2] (substance 10 mg/kg i.p.) were 51.0, 72.0 and 69.0, respectively. Also, the “stimulation of the mobility of animals” value in data set [2] was “stimulate the mobility of animals”.
